In brackets after ≈: the same amount, converted by molar mass. Read-outs that look alike come from different tables or passages of the source.
Tests used:
[1] = test system: Leishmania mexicana amastigotes; test: Activity against Leishmania mexicana, amastigotes; assay type: cell-based; settings: amastigote stage; for IC50: Leishmania mexicana, read-out: Activity against Leishmania mexicana (IC50 μg/ml) amastigotes
Fibroblast (skin) = test: IC50 of the referent molecules on Fibroblast (skin) cells; assay type: cell-based
Sub7 (liver) = test: IC50 of the referent molecules on Sub7 (liver) cells; assay type: cell-based
Caco (colon) = test: IC50 of the referent molecules on Caco (colon) cells; assay type: cell-based
Leishmania mexicana = test: Parasitology: activity against Leishmania mexicana; assay type: cell-based
Aspergillus fumigatus = test: Parasitology: activity against Aspergillus fumigatus; assay type: cell-based; settings: for IC80: IC80 stated in the cell
Candida albicans = test: Parasitology: activity against Candida albicans; assay type: cell-based
[2] = test system: KB, Caco, Huh7 and fibroblast cells; test: Cancer cell model: in vitro test on KB, Caco, Huh7 and fibroblast cells; assay type: cell-based
Cytotoxicity on KB cells = assay type: cell-based; settings: human
tonB protein = tonB protein (Escherichia coli, UniProt P02929); test: Effect on tonB protein (iron transport used for bacterial growth); settings: tonB protein involved in the iron transport process used for bacterial growth
[3] = test system: Leishmania mexicana promastigotes; test: Activity against Leishmania mexicana, promastigotes; assay type: cell-based; settings: for IC50: Leishmania mexicana, read-out: Activity against Leishmania mexicana (IC50 μg/ml) promastigotes, promastigote stage
[4] = 24 h, read-out: IC50 μM Sub7 (liver) 24 h
[5] = 48 h, read-out: IC50 μM Sub7 (liver) 48 h
[6] = 24 h, read-out: IC50 μM Caco (colon) 24 h
[7] = 48 h, read-out: IC50 μM Caco (colon) 48 h
[8] = read-out: Parasitology IC50 or 80 Leishmania mexicana μM
[9] = read-out: Parasitology IC50 or 80 Leishmania mexicana μg/mL
[10] = read-out: Parasitology IC50 or 80 Candida albicans μM
[11] = read-out: Parasitology IC50 or 80 Candida albicans μg/mL
[12] = KB cells, read-out: KB cells Cytotoxicity IC50 μM
[13] = Fibroblast, 24 h, read-out: IC50 μM Fibroblast (skin) 24 h
[14] = Fibroblast, 48 h, read-out: IC50 μM Fibroblast (skin) 48 H

Sequence of tonB protein (P02929 whole entry): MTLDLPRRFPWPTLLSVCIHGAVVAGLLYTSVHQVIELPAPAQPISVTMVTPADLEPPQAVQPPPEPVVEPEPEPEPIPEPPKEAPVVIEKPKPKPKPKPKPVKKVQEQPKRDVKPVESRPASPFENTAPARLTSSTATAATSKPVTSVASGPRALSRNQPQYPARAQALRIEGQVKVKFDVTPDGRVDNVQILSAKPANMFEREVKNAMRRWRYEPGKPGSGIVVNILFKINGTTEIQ

With C[C@@H]1[C@H](O)[C@@H](C)/C=C/C=C/C=C/C=C/C=C/C=C/C=C/[C@H](O[C@@H]2O[C@H](C)[C@@H](O)[C@H](N)[C@@H]2O)C[C@@H]2O[C@](O)(C[C@@H](O)C[C@@H](O)[C@H](O)CC[C@@H](O)C[C@@H](O)CC(=O)O[C@H]1C)C[C@H](O)[C@H]2C(=O)O [Amphotericin B] the “Activity against Leishmania mexicana (IC50 μg/ml) amastigotes” value [1] was 0.47 ± 0.05 µg/mL.

For O=c1[nH]cc(F)c(=O)[nH]1 [Compound 5FU, 5FU], the IC50 (Fibroblast (skin); 48 H, read-out: IC50 μM Fibroblast (skin) 48 H) was > 25 µM, the IC50 (Fibroblast (skin); 24 h, read-out: IC50 μM Fibroblast (skin) 24 h) was > 25 µM and the IC50 (Sub7 (liver); [4]) was > 25 µM. The IC50 (Sub7 (liver); [5]) was > 25 µM, the IC50 (Caco (colon); [6]) was 0.5 µM and the IC50 (Caco (colon); [7]) was 0.5 µM.

For c1ccc(-c2ccc(Oc3ccc(-c4ccccn4)nn3)nn2)nc1 [Compound 9, di(6-pyridin-2-yl)pyridazine ether], the IC50 (Leishmania mexicana; [8]) was > 100 µM, the IC50 (Leishmania mexicana; [9]) was > 22.8 µg/mL and the IC50 (Aspergillus fumigatus; cell does not say IC50 or IC80, read-out: Parasitology IC50 or 80 Aspergillus fumigatus μM) was > 100 µM. For the same molecule, the IC50 (Aspergillus fumigatus; cell does not say IC50 or IC80, read-out: Parasitology IC50 or 80 Aspergillus fumigatus μg/mL) was > 22.8 µg/mL, the IC50 (Candida albicans; [10]) was > 100 µM and the IC50 (Candida albicans; [11]) was > 22.8 µg/mL.

With S=c1ccc(-c2ccccn2)n[nH]1 [Compound 10, 6-(pyridin-2-yl)-2H-pyridazine-3-thione] the “cytotoxic activity in a cancer cell model” value (shortened to “cytotoxic activity”) [2] was “very high cytotoxic activity”.

In the case of c1ccc(-c2ccc(Sc3ccc(-c4ccccn4)nn3)nn2)nc1 [Compound 11, di(6-pyridin-2-yl)pyridazine thioether], the IC50 (Leishmania mexicana; [8]) is reported as 3 µM, the IC50 (Leishmania mexicana; [9]) is reported as 8.73 µg/mL and the “cytotoxic activity” value [2] is reported as “very high cytotoxic activity”. It also gave an IC50 (Candida albicans; [10]) of 99 µM and an IC50 (Candida albicans; [11]) of 24.2 µg/mL.

In the case of C=C(OCC)c1ccc(-c2ccc(C(=C)OCC)nn2)nn1 [Compound 24, 6,6′-di(1-ethoxyvinyl)-3,3′-bipyridazine], the IC50 (Cytotoxicity on KB cells; KB cancer cells, text of Example 2, read-out: cytotoxic potential on KB cancer cells, IC50) is reported as 0.3 µg/mL, the “effect on the tonB protein” value (tonB protein) is reported as “affects the tonB protein” and the “cytotoxic activity” value [2] is reported as “very high cytotoxic activity”.

In the case of c1ccc(-c2ccc(-c3cccc(-c4ccc(-c5ccccn5)nn4)n3)nn2)nc1 [Compound 33, 2,6-bis[6-(pyridin-2-yl)pyridazin-3-yl]-pyridine], the IC50 (Cytotoxicity on KB cells; [12]) is reported as 6.27 µM, the IC50 (Cytotoxicity on KB cells; KB cells, read-out: KB cells Cytotoxicity IC50 μg/mL) is reported as 1.81 µg/mL and the IC50 (Leishmania mexicana; [8]) is reported as 0.19 µM. For the same molecule, the IC50 (Leishmania mexicana; [9]) was 0.05 µg/mL, the IC80 (Aspergillus fumigatus; read-out: Aspergillus fumigatus IC80 μM) was 32 µM and the IC80 (Aspergillus fumigatus; read-out: Aspergillus fumigatus IC80 μg/mL) was 9.26 µg/mL. It also gave an IC50 (Candida albicans; [10]) of 6.4 µM and an IC50 (Candida albicans; [11]) of 1.85 µg/mL.

O=c1ccc(-c2cccc(-c3ccc(=O)[nH]n3)n2)n[nH]1 [Compound 36, 2,6-bis(3-oxo-2H-pyridazin-6-yl)pyridine] gave an IC50 (Cytotoxicity on KB cells; [12]) of 2.6 µM, an IC50 (Leishmania mexicana; [8]) of 41 µM and an IC50 (Leishmania mexicana; [9]) of 11 µg/mL. The IC50 (Candida albicans; [10]) was > 100 µM and the IC50 (Candida albicans; [11]) was > 26.7 µg/mL.

In the case of Cc1cccc(-c2ccc(-c3cccc(-c4ccc(-c5cccc(C)n5)nn4)n3)nn2)n1 [Compound 49, 2,6-bis[6-(6-methylpyridin-2-yl)pyridazin-3-yl)pyridine], the “cytotoxic activity” value [2] is reported as “very high cytotoxic activity”.

For O=C(O)c1cccc(-c2ccc(-c3cccc(-c4ccc(-c5cccc(C(=O)O)n5)nn4)n3)nn2)n1 [Compound 50, 2,6-bis[3-(2-carboxypyridin-6-yl)pyridazin-6-yl]pyridine], the IC50 (Leishmania mexicana; [8]) was 8 µM, the IC50 (Leishmania mexicana; [9]) was 3.8 µg/mL and the “cytotoxic activity” value [2] was “very high cytotoxic activity”. The IC50 (Candida albicans; [10]) was 63 µM and the IC50 (Candida albicans; [11]) was 30.1 µg/mL.

With c1ccc(-c2ccc(-c3ccc4ccc5ccc(-c6ccc(-c7ccccn7)nn6)nc5c4n3)nn2)nc1 [Compound 66, 2,9-bis[6-(pyridin-2-yl)pyridazin-3-yl][1,10]phenanthroline] the IC50 (Leishmania mexicana; [8]) was 16 µM, the IC50 (Leishmania mexicana; [9]) was 7.84 µg/mL and the IC50 (Candida albicans; [10]) was > 100 µM. The IC50 (Candida albicans; [11]) was ≥ 49.1 µg/mL.

With COc1cccc2c1C(=O)c1c(O)c3c(c(O)c1C2=O)C[C@@](O)(C(=O)CO)C[C@@H]3O[C@H]1C[C@H](N)[C@H](O)[C@H](C)O1 [Doxorubicine] the IC50 (Fibroblast (skin); [13]) was 2 µM, the IC50 (Fibroblast (skin); [14]) was 1 µM and the IC50 (Sub7 (liver); [4]) was 0.4 µM. It also gave an IC50 (Sub7 (liver); [5]) of 0.04 µM, an IC50 (Caco (colon); [6]) of 1 µM and an IC50 (Caco (colon); [7]) of 0.06 µM.

For CC(=O)N1CCN(c2ccc(OCC3COC(Cn4ccnc4)(c4ccc(Cl)cc4Cl)O3)cc2)CC1 (stereo not shown) [Ketoconazole], the IC50 [3] was ~0.3 µg/mL (≈ 0.565 µM) and the IC50 [1] was 1.3 ± 0.2 µg/mL (≈ 2.45 µM).

With CCCCCCCCCCCCCCCCOP(=O)([O-])OCC[N+](C)(C)C [Miltefosine] the IC50 [3] was > 2 µg/mL, the “Activity against Leishmania mexicana (IC50 μg/ml) promastigotes” value ([3]; promastigote stage) was >2 µg/mL and the IC50 [1] was 1.42 ± 0.14 µg/mL (≈ 3.48 µM).

With CC[C@H](CO)Nc1nc(NCc2ccccc2)c2ncn(C(C)C)c2n1 [Roscovitine] the IC50 (Fibroblast (skin); [13]) was > 25 µM and the IC50 (Fibroblast (skin); [14]) was > 25 µM.

In the case of CC(=O)O[C@H]1C(=O)[C@@]2(C)[C@H]([C@H](OC(=O)c3ccccc3)[C@]3(O)C[C@H](OC(=O)[C@H](O)[C@@H](NC(=O)c4ccccc4)c4ccccc4)C(C)=C1C3(C)C)[C@]1(OC(C)=O)CO[C@@H]1C[C@@H]2O [Taxol], the IC50 (Fibroblast (skin); [13]) is reported as > 25 µM, the IC50 (Fibroblast (skin); [14]) is reported as > 25 µM and the IC50 (Sub7 (liver); [4]) is reported as 0.01 µM. For the same molecule, the IC50 (Sub7 (liver); [5]) was < 0.01 µM, the IC50 (Caco (colon); [6]) was 0.01 µM and the IC50 (Caco (colon); [7]) was < 0.008 µM.

— patent US9034873B2, “Pyridazine and pyrrole compounds, processes for obtaining them and uses” (Centre National de la Recherche Scientifique (C.N.R.S.), priority 2006, dated 2015)
